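48-hour exposure; five concentrations; linearly interpolated endpoints. GI50 marks 50% less growth. TGI: concentration producing complete growth inhibition.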
Assays:
Test in all cases: inhibition of tumour cell growth, NCI panel, 48 h
SK-OV-3 ovarian = test system: SK-OV-3 ovarian
SNB-75 CNS = test system: SNB-75 CNS
DU-145 prostate = test system: DU-145 prostate
UACC-257 melanoma = test system: UACC-257 melanoma
BT-549 breast = test system: BT-549 breast
NCI-H460 lung = test system: NCI-H460 lung
SK-MEL-28 melanoma = test system: SK-MEL-28 melanoma
K-562 leukemia = test system: K-562 leukemia
IGROV1 ovarian = test system: IGROV1 ovarian
HCC-2998 colon = test system: HCC-2998 colon
SNB-19 CNS = test system: SNB-19 CNS
HOP-62 NSCLC = test system: HOP-62 NSCLC
SF-268 CNS = test system: SF-268 CNS
SK-MEL-2 melanoma = test system: SK-MEL-2 melanoma
MDA-MB-435 = test system: MDA-MB-435
ACHN renal = test system: ACHN renal
HL-60(TB) leukemia = test system: HL-60(TB) leukemia
T-47D breast = test system: T-47D breast
RXF 393 renal = test system: RXF 393 renal
MCF7 breast = test system: MCF7 breast
HOP-92 NSCLC = test system: HOP-92 NSCLC
CAKI-1 renal = test system: CAKI-1 renal
HCT-116 colon = test system: HCT-116 colon
SF-295 CNS = test system: SF-295 CNS
KM12 colon = test system: KM12 colon
MALME-3M melanoma = test system: MALME-3M melanoma
NCI-H23 lung = test system: NCI-H23 lung
NCI-H226 lung = test system: NCI-H226 lung
HCT-15 colon = test system: HCT-15 colon
U251 CNS = test system: U251 CNS
LOX IMVI melanoma = test system: LOX IMVI melanoma
NCI-H522 lung = test system: NCI-H522 lung
EKVX NSCLC = test system: EKVX NSCLC
MOLT-4 leukemia = test system: MOLT-4 leukemia
SK-MEL-5 melanoma = test system: SK-MEL-5 melanoma
MDA-MB-231 breast = test system: MDA-MB-231 breast
A498 renal = test system: A498 renal
SF-539 CNS = test system: SF-539 CNS
UO-31 renal = test system: UO-31 renal
OVCAR-5 ovarian = test system: OVCAR-5 ovarian
PC-3 prostate = test system: PC-3 prostate
COLO 205 colon = test system: COLO 205 colon
HS 578T breast = test system: HS 578T breast
A549 NSCLC = test system: A549 NSCLC
SW-620 colon = test system: SW-620 colon
CCRF-CEM leukemia = test system: CCRF-CEM leukemia
SR leukemia = test system: SR leukemia
786-0 renal = test system: 786-0 renal
TK-10 renal = test system: TK-10 renal
OVCAR-8 ovarian = test system: OVCAR-8 ovarian
HT29 colon = test system: HT29 colon
UACC-62 melanoma = test system: UACC-62 melanoma
SN12C renal = test system: SN12C renal
OVCAR-4 ovarian = test system: OVCAR-4 ovarian
RPMI-8226 leukemia = test system: RPMI-8226 leukemia

`Oc1ccc(CSc2nnc(-c3ccccc3)o2)c2cccnc12` was tested, and the GI50 (SK-OV-3 ovarian) was 2.87 µM, the TGI (SK-OV-3 ovarian) was 15 µM and the GI50 (SNB-75 CNS) was 1.47 µM. It also gave a TGI (SNB-75 CNS) of 15.6 µM, a GI50 (DU-145 prostate) of 3.41 µM and a TGI (DU-145 prostate) greater than 100 µM. The GI50 (UACC-257 melanoma) was 2.62 µM, the TGI (UACC-257 melanoma) was 8.92 µM and the GI50 (BT-549 breast) was 0.923 µM. For the same compound, the TGI (BT-549 breast) was greater than 100 µM, the GI50 (NCI-H460 lung) was 0.527 µM and the TGI (NCI-H460 lung) was greater than 100 µM. The GI50 (SK-MEL-28 melanoma) was 2.29 µM, the TGI (SK-MEL-28 melanoma) was greater than 100 µM and the GI50 (K-562 leukemia) was 2.05 µM. It also gave a TGI (K-562 leukemia) greater than 100 µM, a GI50 (IGROV1 ovarian) of 2.42 µM and a TGI (IGROV1 ovarian) greater than 100 µM. The GI50 (HCC-2998 colon) was 2.26 µM, the TGI (HCC-2998 colon) was greater than 100 µM and the GI50 (SNB-19 CNS) was 0.817 µM. For the same compound, the TGI (SNB-19 CNS) was 19.3 µM, the GI50 (HOP-62 NSCLC) was 2.33 µM and the TGI (HOP-62 NSCLC) was 30.6 µM. The GI50 (SF-268 CNS) was 0.92 µM, the TGI (SF-268 CNS) was greater than 100 µM and the GI50 (SK-MEL-2 melanoma) was 2.55 µM. The TGI (SK-MEL-2 melanoma) was 29.8 µM, the GI50 (MDA-MB-435) was 1.08 µM and the TGI (MDA-MB-435) was greater than 100 µM. It also gave a GI50 (ACHN renal) of 2.03 µM, a TGI (ACHN renal) of 5.89 µM and a GI50 (HL-60(TB) leukemia) of 1.39 µM. The TGI (HL-60(TB) leukemia) was 6.62 µM, the GI50 (T-47D breast) was 2.55 µM and the TGI (T-47D breast) was greater than 100 µM. The GI50 (RXF 393 renal) was 3.27 µM, the TGI (RXF 393 renal) was 97.2 µM and the GI50 (MCF7 breast) was 2.45 µM. For the same compound, the TGI (MCF7 breast) was greater than 100 µM, the GI50 (HOP-92 NSCLC) was 0.499 µM and the TGI (HOP-92 NSCLC) was 5.36 µM. It also gave a GI50 (CAKI-1 renal) of 2.87 µM, a TGI (CAKI-1 renal) greater than 100 µM and a GI50 (HCT-116 colon) of 1.65 µM. For the same compound, the TGI (HCT-116 colon) was greater than 100 µM, the GI50 (SF-295 CNS) was 1.39 µM and the TGI (SF-295 CNS) was 21 µM. The GI50 (KM12 colon) was 0.724 µM, the TGI (KM12 colon) was greater than 100 µM and the GI50 (MALME-3M melanoma) was 2.8 µM. For the same compound, the TGI (MALME-3M melanoma) was greater than 100 µM, the GI50 (NCI-H23 lung) was 2.44 µM and the TGI (NCI-H23 lung) was 14 µM. The GI50 (NCI-H226 lung) was 3.78 µM, the TGI (NCI-H226 lung) was greater than 100 µM and the GI50 (HCT-15 colon) was 0.797 µM. The TGI (HCT-15 colon) was greater than 100 µM, the GI50 (U251 CNS) was 0.783 µM and the TGI (U251 CNS) was greater than 100 µM. The GI50 (LOX IMVI melanoma) was 1.56 µM, the TGI (LOX IMVI melanoma) was 11.3 µM and the GI50 (NCI-H522 lung) was 2.33 µM. The TGI (NCI-H522 lung) was greater than 100 µM, the GI50 (EKVX NSCLC) was 2.62 µM and the TGI (EKVX NSCLC) was greater than 100 µM. The GI50 (MOLT-4 leukemia) was 2.03 µM, the TGI (MOLT-4 leukemia) was greater than 100 µM and the GI50 (SK-MEL-5 melanoma) was 1.83 µM. The TGI (SK-MEL-5 melanoma) was 6.4 µM, the GI50 (MDA-MB-231 breast) was 4.01 µM and the TGI (MDA-MB-231 breast) was greater than 100 µM. For the same compound, the GI50 (A498 renal) was 4.1 µM, the TGI (A498 renal) was greater than 100 µM and the GI50 (SF-539 CNS) was 1.49 µM. The TGI (SF-539 CNS) was 15.8 µM, the GI50 (UO-31 renal) was 1.56 µM and the TGI (UO-31 renal) was 7.47 µM. The GI50 (OVCAR-5 ovarian) was 6.65 µM, the TGI (OVCAR-5 ovarian) was greater than 100 µM and the GI50 (PC-3 prostate) was 1.03 µM. The TGI (PC-3 prostate) was greater than 100 µM, the GI50 (COLO 205 colon) was 59.3 µM and the TGI (COLO 205 colon) was greater than 100 µM. The GI50 (HS 578T breast) was 0.721 µM, the TGI (HS 578T breast) was greater than 100 µM and the GI50 (A549 NSCLC) was 2.69 µM. It also gave a TGI (A549 NSCLC) greater than 100 µM, a GI50 (SW-620 colon) of 2.57 µM and a TGI (SW-620 colon) greater than 100 µM. For the same compound, the GI50 (CCRF-CEM leukemia) was 1.13 µM, the TGI (CCRF-CEM leukemia) was greater than 100 µM and the GI50 (SR leukemia) was 0.873 µM. The TGI (SR leukemia) was greater than 100 µM, the GI50 (786-0 renal) was 3.14 µM and the TGI (786-0 renal) was 11.9 µM. The GI50 (TK-10 renal) was 2.52 µM, the TGI (TK-10 renal) was 9.86 µM and the GI50 (OVCAR-8 ovarian) was 1.77 µM. For the same compound, the TGI (OVCAR-8 ovarian) was greater than 100 µM, the GI50 (HT29 colon) was 6.97 µM and the TGI (HT29 colon) was greater than 100 µM. It also gave a GI50 (UACC-62 melanoma) of 2.19 µM, a TGI (UACC-62 melanoma) of 6.01 µM and a GI50 (SN12C renal) of 2.64 µM. For the same compound, the TGI (SN12C renal) was greater than 100 µM, the GI50 (OVCAR-4 ovarian) was 4.34 µM and the TGI (OVCAR-4 ovarian) was greater than 100 µM. It also gave a GI50 (RPMI-8226 leukemia) of 0.772 µM and a TGI (RPMI-8226 leukemia) greater than 100 µM.
